Data from patent US20240341307A1, “FUNGICIDAL COMPOSITIONS” (SYNGENTA CROP PROTECTION AG, priority 2021, published 2024).

Columns and labels:
Assay type in all cases: cell-based
Settings in all cases: alone
[1] = tested on: Botrytis cinerea; assay: Botrytis cinerea (gray mould) growth inhibition in nutrient broth, microtiter plate, photometric after 72 hrs
From the text: A synergistic effect exists whenever the action of an active ingredient combination is greater than the sum of the actions of the individual components. The action to be expected E for a given active ingredient combination obeys the so-called COLBY formula and can be calculated as follows (COLBY, S. R. “Calculating synergistic and antagonistic responses of herbicide combination”. Weeds, Vol. 15, pages 20-22; 1967): • ppm=milligrams of active ingredient (=a.i.) per liter of spray mixture • X=% action by active ingredient A) using p ppm of active ingredient • Y=% action by active ingredient B) using q ppm of active ingredient. According to COLBY, the expected (additive) action of active ingredients A)+B) using p+q ppm of active ingredient is If the action actually observed (O) is greater than the expected action (E), then the action of the combination is super-additive, i.e. there is a synergistic effect. In mathematical terms, synergism corresponds to a positive value for the difference of (O-E). In the case of purely complementary addition of activities (expected activity), said difference (O-E) is zero. A negative value of said difference (O-E) signals a loss of activity compared to the expected activity. Botrytis cinerea (GRAY Mould): Conidia of the fungus from cryogenic storage were directly mixed into nutrient broth ([…] potato dextrose broth). A DMSO solution of the test compounds was placed into a microtiter plate (96-well format) and the nutrient broth containing the fungal spores was added to it. The test plates were incubated at 24 C and the inhibition of growth was determined photometrically after 72 hrs.

[2] = tested on: Sclerotinia sclerotiorum; assay: Sclerotinia sclerotiorum (cottony rot, white mold) growth inhibition in nutrient broth, photometric after 72 hrs at 620 nm
From the text: A synergistic effect exists whenever the action of an active ingredient combination is greater than the sum of the actions of the individual components. The action to be expected E for a given active ingredient combination obeys the so-called COLBY formula and can be calculated as follows (COLBY, S. R. “Calculating synergistic and antagonistic responses of herbicide combination”. Weeds, Vol. 15, pages 20-22; 1967): • ppm=milligrams of active ingredient (=a.i.) per liter of spray mixture • X=% action by active ingredient A) using p ppm of active ingredient • Y=% action by active ingredient B) using q ppm of active ingredient. According to COLBY, the expected (additive) action of active ingredients A)+B) using p+q ppm of active ingredient is If the action actually observed (O) is greater than the expected action (E), then the action of the combination is super-additive, i.e. there is a synergistic effect. In mathematical terms, synergism corresponds to a positive value for the difference of (O-E). In the case of purely complementary addition of activities (expected activity), said difference (O-E) is zero. A negative value of said difference (O-E) signals a loss of activity compared to the expected activity. Sclerotinia sclerotiorum (Cottony Rot, White Mold, Etc.) Mycelial fragments of the fungus prepared from a fresh liquid culture were directly mixed into nutrient broth (PDB potato dextrose broth). A DMSO solution of the test compounds was placed into a microtiter plate (96-well format) and the nutrient broth containing the fungal spores was added to it. The test plates were incubated at 24 C and the inhibition of growth was determined photometrically after 72 hrs at 620 nm.

[3] = tested on: Alternaria solani; assay: Alternaria solani (early blight tomato/potato) growth inhibition in nutrient broth, microtiter plate, photometric after 48 hrs
From the text: A synergistic effect exists whenever the action of an active ingredient combination is greater than the sum of the actions of the individual components. The action to be expected E for a given active ingredient combination obeys the so-called COLBY formula and can be calculated as follows (COLBY, S. R. “Calculating synergistic and antagonistic responses of herbicide combination”. Weeds, Vol. 15, pages 20-22; 1967): • ppm=milligrams of active ingredient (=a.i.) per liter of spray mixture • X=% action by active ingredient A) using p ppm of active ingredient • Y=% action by active ingredient B) using q ppm of active ingredient. According to COLBY, the expected (additive) action of active ingredients A)+B) using p+q ppm of active ingredient is If the action actually observed (O) is greater than the expected action (E), then the action of the combination is super-additive, i.e. there is a synergistic effect. In mathematical terms, synergism corresponds to a positive value for the difference of (O-E). In the case of purely complementary addition of activities (expected activity), said difference (O-E) is zero. A negative value of said difference (O-E) signals a loss of activity compared to the expected activity. Alternaria solani (Early Blight Tomato/Potato): Conidia of the fungus from cryogenic storage were directly mixed into nutrient broth (PDB potato dextrose broth). A DMSO solution of the test compounds was placed into a microtiter plate (96-well format) and the nutrient broth containing the fungal spores was added to it. The test plates were incubated at 24 C and the inhibition of growth was determined photometrically after 48 hrs.

[4] = tested on: Mycosphaerella arachidis syn. Cercospora arachidicola; assay: Mycosphaerella arachidis syn. Cercospora arachidicola (brown leaf spot of peanut) growth inhibition in nutrient broth, photometric after 5-6 days at 620 nm
From the text: A synergistic effect exists whenever the action of an active ingredient combination is greater than the sum of the actions of the individual components. The action to be expected E for a given active ingredient combination obeys the so-called COLBY formula and can be calculated as follows (COLBY, S. R. “Calculating synergistic and antagonistic responses of herbicide combination”. Weeds, Vol. 15, pages 20-22; 1967): • ppm=milligrams of active ingredient (=a.i.) per liter of spray mixture • X=% action by active ingredient A) using p ppm of active ingredient • Y=% action by active ingredient B) using q ppm of active ingredient. According to COLBY, the expected (additive) action of active ingredients A)+B) using p+q ppm of active ingredient is If the action actually observed (O) is greater than the expected action (E), then the action of the combination is super-additive, i.e. there is a synergistic effect. In mathematical terms, synergism corresponds to a positive value for the difference of (O-E). In the case of purely complementary addition of activities (expected activity), said difference (O-E) is zero. A negative value of said difference (O-E) signals a loss of activity compared to the expected activity. Mycosphaerella arachidis syn. Cercospora arachidicola (Brown leaf spot of peanut): Conidia of the fungus from cryogenic storage were directly mixed into nutrient broth (PDB potato dextrose broth). A DMSO solution of the test compounds was placed into a microtiter plate (96-well format) and the nutrient broth containing the fungal spores was added to it. The test plates were incubated at 24 C and the inhibition of growth was determined photometrically after 5-6 days at 620 nm

[5] = tested on: Glomerella lapenarium Syn. Colletotrichum lapenarium; assay: Glomerella lapenarium syn. Colletotrichum lapenarium (anthracnose of cucurbits) growth inhibition in nutrient broth, photometric after 72 hrs at 620 nm
From the text: A synergistic effect exists whenever the action of an active ingredient combination is greater than the sum of the actions of the individual components. The action to be expected E for a given active ingredient combination obeys the so-called COLBY formula and can be calculated as follows (COLBY, S. R. “Calculating synergistic and antagonistic responses of herbicide combination”. Weeds, Vol. 15, pages 20-22; 1967): • ppm=milligrams of active ingredient (=a.i.) per liter of spray mixture • X=% action by active ingredient A) using p ppm of active ingredient • Y=% action by active ingredient B) using q ppm of active ingredient. According to COLBY, the expected (additive) action of active ingredients A)+B) using p+q ppm of active ingredient is If the action actually observed (O) is greater than the expected action (E), then the action of the combination is super-additive, i.e. there is a synergistic effect. In mathematical terms, synergism corresponds to a positive value for the difference of (O-E). In the case of purely complementary addition of activities (expected activity), said difference (O-E) is zero. A negative value of said difference (O-E) signals a loss of activity compared to the expected activity. Glomerella lapenarium Syn. Colletotrichum lapenarium (Anthracnose of Cucurbits): Conidia of the fungus from cryogenic storage were directly mixed into nutrient broth ([…] potato dextrose broth). A DMSO solution of the test compounds was placed into a microtiter plate (96-well format) and the nutrient broth containing the fungal spores was added to it. The test plates were incubated at 24 C and the inhibition of growth was determined photometrically after 72 hrs at 620 nm.

O=C(NC1CCC1c1ccc(Cl)cc1Cl)c1cccnc1C(F)(F)F (stereo in doubt) [Cyclobutrifluram, cyclobutrifluram]
Observed Activity (%) ([1]; 0.066 ppm): 20% | Observed Activity (%) ([1]; 0.074 ppm): 20% | Observed Activity (%) ([1]; 0.2 ppm): 50% | Observed Activity (%) ([1]; 0.22 ppm): 50% | Observed Activity (%) ([1]; 0.66 ppm): 70% | Observed Activity (%) ([2]; 0.074 ppm): 20% | Observed Activity (%) ([3]; 0.0008 ppm): 0% | Observed Activity (%) ([3]; 0.00246 ppm): 20% | Observed Activity (%) ([3]; 0.0074 ppm): 50% | Observed Activity (%) ([3]; 0.022 ppm): 70%

CCS(=O)(=O)c1cc(C(F)(F)F)ccc1C(=O)N(C(C)=O)c1ccc(OC(F)(F)F)cc1C(=O)OC [Compound A-1.1, Methyl 2-[acetyl-[2-ethylsulfonyl-4-(trifluoromethyl)benzoyl]amino]-5-(trifluoromethoxy)benzoate]
inhibition at 10 ppm ([4]; Mycosphaerella arachidis, 10 ppm, read-out: Observed Activity (%)): 0% | inhibition at 20 ppm ([4]; Mycosphaerella arachidis, 20 ppm, read-out: Observed Activity (%)): 0% | inhibition at 1 ppm ([1]; Botrytis cinerea, 1 ppm, read-out: Observed Activity (%)): 50% | inhibition at 2 ppm ([1]; Botrytis cinerea, 2 ppm, read-out: Observed Activity (%)): 50% | inhibition at 10 ppm ([1]; Botrytis cinerea, 10 ppm, read-out: Observed Activity (%)): 50% | inhibition at 20 ppm ([1]; Botrytis cinerea, 20 ppm, read-out: Observed Activity (%)): 50% | inhibition at 1 ppm ([5]; Colletotrichum, 1 ppm, read-out: Observed Activity (%)): 0% | inhibition at 2 ppm ([5]; Colletotrichum, 2 ppm, read-out: Observed Activity (%)): 0% | inhibition at 10 ppm ([5]; Colletotrichum, 10 ppm, read-out: Observed Activity (%)): 70% | inhibition at 20 ppm ([5]; Colletotrichum, 20 ppm, read-out: Observed Activity (%)): 70% | inhibition at 10 ppm ([2]; Sclerotinia sclerotiorum, 10 ppm, read-out: Observed Activity (%)): 0% | inhibition at 20 ppm ([2]; Sclerotinia sclerotiorum, 20 ppm, read-out: Observed Activity (%)): 0% | inhibition at 1 ppm ([3]; Alternaria solani, 1 ppm, read-out: Observed Activity (%)): 50% | inhibition at 2 ppm ([3]; Alternaria solani, 2 ppm, read-out: Observed Activity (%)): 50%

O=C(Nc1ccccc1F)c1ccc(-c2noc(C(F)(F)F)n2)cc1 [Flufenoxadiazam, flufenoxadiazam]
Observed Activity (%) ([5]; 0.08 ppm): 20% | Observed Activity (%) ([5]; 0.246 ppm): 20% | Observed Activity (%) ([5]; 0.74 ppm): 20% | Observed Activity (%) ([5]; 2.22 ppm): 20%

N#Cc1ccc(Oc2ccc(C(F)(F)C(O)(Cn3[nH]cnc3=S)c3ccc(F)cc3F)nc2)cc1 (stereo not drawn) [Fluoxytioconazole, fluoxytioconazole]
Observed Activity (%) ([1]; 0.22 ppm): 0% | Observed Activity (%) ([1]; 0.66 ppm): 0% | Observed Activity (%) ([1]; 2 ppm): 0% | Observed Activity (%) ([1]; 6 ppm): 20%

CCC(=O)Oc1c(OC)ccnc1C(=O)N[C@@H](C)C(=O)O[C@@H](C)[C@@H](C)c1ccccc1C [Metarylpicoxamid, metarylpicoxamid]
Observed Activity (%) ([4]; 0.0246 ppm): 20% | Observed Activity (%) ([1]; 0.0246 ppm): 0% | Observed Activity (%) ([1]; 0.074 ppm): 20% | Observed Activity (%) ([1]; 0.22 ppm): 50% | Observed Activity (%) ([1]; 0.66 ppm): 70% | Observed Activity (%) ([5]; 2 ppm): 70% | Observed Activity (%) ([3]; 0.22 ppm): 20% | Observed Activity (%) ([3]; 0.66 ppm): 50% | Observed Activity (%) ([3]; 2 ppm): 50%

CON(C(=O)c1cn(C)nc1C(F)F)C(C)Cc1c(Cl)cc(Cl)cc1Cl (stereo not drawn) [Pydiflumetofen, pydiflumetofen]
Observed Activity (%) ([1]; 0.0008 ppm): 0% | Observed Activity (%) ([1]; 0.00246 ppm): 20% | Observed Activity (%) ([1]; 0.0074 ppm): 50% | Observed Activity (%) ([1]; 0.022 ppm): 70% | Observed Activity (%) ([3]; 0.0008 ppm): 0% | Observed Activity (%) ([3]; 0.00246 ppm): 50% | Observed Activity (%) ([3]; 0.0074 ppm): 70%
